Results reported in US10080751B2, “Systems and methods for treating bacterial infection” (priority 2016, dated 2018).
Converted amounts (≈) assume the structure as drawn. Read-outs that look alike come from different tables or passages of the source.

Experiments:
S. aureus = experiment: MIC with/without bovine pulmonary surfactant, S. aureus; assay type: cell-based, Staphylococcus aureus; settings: for MICRZ, Resazurin: +BPS: 2.5% v/v BPS; for MICRZ, Resazurin: no BPS
Procedure: (§1) Clinical isolates were identified by the submitting laboratories and confirmed by JMI Laboratories using standard bacteriologic algorithms and methodologies, including Matrix-Assisted Laser Desorption Ionization-Time Of Flight Mass Spectrometry (MALDI-TOF MS). When necessary, MALDI-TOF MS was performed using the Bruker Daltonics MALDI Biotyper (Billerica, Mass., USA), following manufacturer's instructions. Isolates selected were bacterial species commonly associated with pneumonia. […] 2.2 Susceptibility testing
(§2) Antibacterial susceptibility testing was measured by JMI Labs (North Liberty, Iowa, USA). […] These clinical isolates were collected from US (n=4), Mexico (n=2), and Italy (n=1). Susceptibility testing was performed by broth microdilution in accordance with the Clinical and Laboratory and Standards Institute (CLSI) guidelines M07-A10 (2015) and the standard operating procedures at JMI laboratories. Minimum inhibitory concentrations (MICs) were based on CLSI criteria (2015). There are no published breakpoints for iclaprim. E. coli, K. pneumoniae, M. catarrhalis, E. faecalis, and S. aureus were tested in cation-adjusted Mueller-Hinton broth (CA-MHB). S. pneumoniae were tested in CA-MHB supplemented with 2.5-5% lysed horse blood, and H. influenza were tested in Haemophilus test medium. Quality control and interpretation of results were performed in accordance with CLSI M100-S26 (2016) methods. QC ranges for iclaprim were those approved by CLSI and published in M100-S26 (2016). Iclaprim and comparator antibiotic MIC results were within the CLSI published ranges against E. coli ATCC 25922, E. faecalis ATCC 29212, E. faecalis ATCC 33186, H. influenzae ATCC 49247, K. pneumoniae ATCC 700603 (ESBL phenotype), S. aureus ATCC 29213, and S. pneumoniae ATCC 49619. Isolates were tested with MIC panels (ThermoFisher Scientific, Cleveland, Ohio, USA) of comparator antibiotics (daptomycin and levofloxacin).
(§3) Because bovine pulmonary surfactant can introduce cloudiness to the MIC testing media, antimicrobial growth inhibition was also evaluated using the colorimetric metabolic indicator resazurin (Camlab Ltd., Cambridge, UK). […] S. pneumoniae panels were omitted from resazurin analysis because the color change was obscured by the lysed horse blood present in the test medium. Growth inhibition was then evaluated as a visible color change from blue (no growth) to pink (robust growth) and recorded as a MICRZ value.
(§4) The MICs of iclaprim, levofloxacin, and daptomycin were determined against Gram-positive and Gram-negative isolates.
(§5) A new vial of bovine pulmonary surfactant (BPS; Survanta®; Abbott Laboratories, Columbus, Ohio) was utilized for each independent experiment. Each vial was mixed thoroughly and a 100 μL aliquot was spread on an agar plate, which was incubated overnight to confirm sterility. […] The concentration of surfactant was expressed in terms of percent volume of Survanta® suspension, which consisted of phospholipid (25 mg/mL) and surfactant proteins (<1 mg/mL) in 0.9% sodium chloride solution (Goerke, 1998). MICs of daptomycin were determined in CAMHB with the Ca^2+ content adjusted to 50 mg/L.

[1] = tested on: common Gram-positive and Gram-negative respiratory bacteria; experiment: Pulmonary surfactant interaction, overall effect on MIC and MICRZ; assay type: cell-based; settings: 2.5% (v/v) BPS, all tested strains or isolates
Procedure: Antibacterial susceptibility testing was measured by JMI Labs (North Liberty, Iowa, USA). […] These clinical isolates were collected from US (n=4), Mexico (n=2), and Italy (n=1). Susceptibility testing was performed by broth microdilution in accordance with the Clinical and Laboratory and Standards Institute (CLSI) guidelines M07-A10 (2015) and the standard operating procedures at JMI laboratories. Minimum inhibitory concentrations (MICs) were based on CLSI criteria (2015). There are no published breakpoints for iclaprim. E. coli, K. pneumoniae, M. catarrhalis, E. faecalis, and S. aureus were tested in cation-adjusted Mueller-Hinton broth (CA-MHB). […]
Because bovine pulmonary surfactant can introduce cloudiness to the MIC testing media, antimicrobial growth inhibition was also evaluated using the colorimetric metabolic indicator resazurin (Camlab Ltd., Cambridge, UK). […] Growth inhibition was then evaluated as a visible color change from blue (no growth) to pink (robust growth) and recorded as a MICRZ value.
as §4
A new vial of bovine pulmonary surfactant (BPS; Survanta®; Abbott Laboratories, Columbus, Ohio) was utilized for each independent experiment. […] MICs of daptomycin were determined in CAMHB with the Ca^2+ content adjusted to 50 mg/L. […]

E. faecalis = experiment: MIC with/without bovine pulmonary surfactant, E. faecalis; assay type: cell-based, Enterococcus faecalis; settings: for MICRZ, Resazurin: +BPS: 2.5% v/v BPS; for MICRZ, Resazurin: no BPS
Procedure: as §1, §2, §3, §4, §5

S. pneumoniae = experiment: MIC with/without bovine pulmonary surfactant, S. pneumoniae; assay type: cell-based; settings: Streptococcus pneumoniae
Procedure: as §1, §2, §3, §4, §5

[2] = Single-dose ECG study in healthy human volunteers (1.6 and 3.2 mg/kg over 30 minutes); assay type: in vivo; settings: 3.2 mg/kg infused over 30 minutes
Procedure: Based on this, a single-dose ECG-study was conducted in healthy human volunteers, where 1.6 mg/kg and 3.2 mg/kg iclaprim was infused over 30 minutes. […] Maximal increases coincided with Cmax levels and were rapidly reversible. Weight-based dosing with 1.6 mg/kg was thus assessed as acceptable for clinical purposes, whereas weight-based dosing at 3.2 mg/kg was associated with relevant QTc prolongations (>60 msec) and nonspecific T-wave alterations, and was not used for further clinical studies.

[3] = tested on: methicillin-resistant Staphylococcus aureus (MRSA) isolates; experiment: Broth microdilution MIC against MRSA nonsusceptible to daptomycin, linezolid or vancomycin; assay type: cell-based
Procedure: Antibacterial susceptibility testing was conducted on a range of MRSA strains and isolates with varying susceptibilities to several recognized antistaphylococcal antibiotics. Susceptibility testing was performed by broth microdilution in accordance with the Clinical and Laboratory and Standards Institute (CLSI) guidelines. Minimum inhibitory concentrations (MICs) were based on CLSI criteria.

[4] = tested on: nosocomial pneumonia suspected or confirmed to be caused by Gram-positive pathogens; settings: cited from earlier work; for cure rate: intent-to-treat, test of cure visit
[5] = tested on: isolated rabbit Purkinje fibers
M. catarrhalis = experiment: MIC with/without bovine pulmonary surfactant, M. catarrhalis; assay type: cell-based, Moraxella catarrhalis; settings: for MICRZ, Resazurin: +BPS: 2.5% v/v BPS
Procedure: as §1, §2, §3, §4, §5

E. coli = experiment: MIC with/without bovine pulmonary surfactant, E. coli; assay type: cell-based, Escherichia coli; settings: E. coli ATCC 25922
Procedure: as §1, §2, §3, §4
A new vial of bovine pulmonary surfactant (BPS; Survanta®; Abbott Laboratories, Columbus, Ohio) was utilized for each independent experiment. […] MICs of daptomycin were determined in CAMHB with the Ca^2+ content adjusted to 50 mg/L.

H. influenzae = experiment: MIC with/without bovine pulmonary surfactant, H. influenzae; assay type: cell-based, Haemophilus influenzae; settings: for MIC: Haemophilus influenzae
Procedure: as §1, §2, §3, §4, §5

[6] = S. aureus Clinical Isolate 825189

## COc1cc(Cc2cnc(N)nc2N)c2c(c1OC)OC(C1CC1)C=C2 (racemic) [Iclaprim]
S. aureus; S. aureus ATCC 29213
  MICRZ, Resazurin: +BPS: 0.06 µg/mL
  MICRZ, Resazurin: 0.06 µg/mL
S. aureus; [6]
  MICRZ, Resazurin: +BPS: 0.12 µg/mL
  MICRZ, Resazurin: 0.06 µg/mL
[1]
  effect of BPS on the MIC and MICRZ values: minimal or no effect
E. faecalis; E. faecalis ATCC 29212
  MICRZ, Resazurin: +BPS: <=0.015 μg/mL
  MICRZ, Resazurin: <=0.015 μg/mL
E. faecalis; E. faecalis ATCC 33186
  MICRZ, Resazurin: +BPS: <=0.015 μg/mL
  MICRZ, Resazurin: 0.03 µg/mL
S. pneumoniae; ATCC49619, S. pneumoniae ATCC 49619, 2.5% v/v BPS, read-out: MIC, CLSI: +BPS
  MIC: 0.06 µg/mL (≈ 0.169 µM)
S. pneumoniae; ATCC49619, S. pneumoniae ATCC 49619, no BPS, read-out: MIC, CLSI
  MIC: 0.06 µg/mL (≈ 0.169 µM)
S. pneumoniae; S. pneumoniae Clinical Isolate 818757, 2.5% v/v BPS, read-out: MIC, CLSI: +BPS
  MIC: 0.06 µg/mL (≈ 0.169 µM)
S. pneumoniae; S. pneumoniae Clinical Isolate 818757, no BPS, read-out: MIC, CLSI
  MIC: 0.06 µg/mL (≈ 0.169 µM)
S. pneumoniae; S. pneumoniae Clinical Isolate 825175, 2.5% v/v BPS, read-out: MIC, CLSI: +BPS
  MIC: 0.12 µg/mL (≈ 0.339 µM)
S. pneumoniae; S. pneumoniae Clinical Isolate 825175, no BPS, read-out: MIC, CLSI
  MIC: 0.12 µg/mL (≈ 0.339 µM)
[2]
  QTc prolongations: > 60 ms
[3]; Staphylococcus aureus, MRSA, read-out: MIC to the majority of MRSA isolates
  MIC: ≤ 1 µg/mL
[3]; Staphylococcus aureus, 59 MRSA isolates
  MIC50: 0.25 µg/mL (≈ 0.705 µM)
[3]; isolates nonsusceptible to linezolid (25 of 25)
  MRSA isolates with iclaprim MIC ≤1 μg/ml: 100%
[3]; nine of 59 MRSA isolates
  isolates with reduced susceptibility, MICs >8 μg/mL: 15.2%
[4]; iclaprim q12h
  death rate within 28 days of the start of treatment: 8.7%
[4]; iclaprim 0.8 mg/kg IV q12h
  cure rate: 73.9%
[4]; iclaprim 1.6 mg/kg IV q8h
  cure rate: 62.5%
[5]
  iclaprim concentrations at which action potential duration was increased: above 1 μM
M. catarrhalis; M. catarrhalis Clinical Isolate 893806
  MICRZ, Resazurin: +BPS: 8 µg/mL
M. catarrhalis; M. catarrhalis Clinical Isolate 893806, no BPS
  MICRZ, Resazurin: 4 µg/mL
M. catarrhalis; M. catarrhalis Clinical Isolate 893807
  MICRZ, Resazurin: +BPS: 4 µg/mL
M. catarrhalis; M. catarrhalis Clinical Isolate 893807, no BPS
  MICRZ, Resazurin: 4 µg/mL
M. catarrhalis; Moraxella catarrhalis, M. catarrhalis Clinical Isolate 893806, no BPS
  MIC: 4 µg/mL (≈ 11.3 µM)
E. coli; 2.5% v/v BPS
  MICRZ, Resazurin: +BPS: 1 µg/mL
E. coli; no BPS
  MICRZ, Resazurin: 1 µg/mL
H. influenzae; H. influenzae ATCC 49247, 2.5% v/v BPS
  MICRZ, Resazurin: +BPS: 0.25 µg/mL
H. influenzae; H. influenzae ATCC 49247, no BPS
  MICRZ, Resazurin: 0.25 µg/mL
H. influenzae; H. influenzae Clinical Isolate 824704, 2.5% v/v BPS
  MICRZ, Resazurin: +BPS: 0.06 µg/mL
H. influenzae; H. influenzae Clinical Isolate 824704, no BPS
  MICRZ, Resazurin: 0.06 µg/mL
H. influenzae; ATCC49247, H. influenzae ATCC 49247, 2.5% v/v BPS, read-out: MIC, CLSI: +BPS
  MIC: 0.12 µg/mL (≈ 0.339 µM)
H. influenzae; ATCC49247, H. influenzae ATCC 49247, no BPS, read-out: MIC, CLSI
  MIC: 0.12 µg/mL (≈ 0.339 µM)
H. influenzae; H. influenzae Clinical Isolate 824704, 2.5% v/v BPS, read-out: MIC, CLSI: +BPS
  MIC: 0.06 µg/mL (≈ 0.169 µM)
H. influenzae; H. influenzae Clinical Isolate 824704, no BPS, read-out: MIC, CLSI
  MIC: 0.06 µg/mL (≈ 0.169 µM)
